Laboratory results as given in patent US8883963B2 (Cadila Healthcare Limited, priority 2007, dated 2014).

Assays:
Human GLP-1 receptor = target: T1, Human GLP-1 receptor (Homo sapiens, UniProt P43220); test: In vitro Human GLP-1 R agonist activity (cyclic AMP determination) in CHO/human GLP1R cells; type: cell-based
T1 construct: The full-length cDNA was cloned in pcDNA3.1(+); expressed in transfected cells

human glucagon receptor = target: T2, human glucagon receptor (Homo sapiens, UniProt P47871); test: In vitro human glucagon antagonist activity (inhibition of cAMP production) in CHO/human glucagon R cells; type: cell-based; settings: with saturated concentration of glucagon peptide
T2 construct: The full-length cDNA was cloned in pcDNA3.1 (Invitrogen); expressed in transfected cells
T2 sequence (P47871 26-477): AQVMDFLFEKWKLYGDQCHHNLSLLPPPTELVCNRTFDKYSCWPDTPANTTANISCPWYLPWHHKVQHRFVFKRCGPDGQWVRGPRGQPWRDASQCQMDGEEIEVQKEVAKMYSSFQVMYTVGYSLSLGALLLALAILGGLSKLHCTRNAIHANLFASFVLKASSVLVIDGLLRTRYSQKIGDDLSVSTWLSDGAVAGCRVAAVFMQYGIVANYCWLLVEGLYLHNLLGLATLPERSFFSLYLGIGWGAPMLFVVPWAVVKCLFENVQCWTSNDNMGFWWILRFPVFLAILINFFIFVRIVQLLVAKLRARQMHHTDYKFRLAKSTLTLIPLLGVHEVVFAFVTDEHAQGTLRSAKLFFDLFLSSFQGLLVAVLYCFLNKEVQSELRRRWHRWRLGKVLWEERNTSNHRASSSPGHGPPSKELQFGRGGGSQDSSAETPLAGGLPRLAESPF

DPP IV = DPP IV (Homo sapiens, UniProt P27487); test: Stability against DPP IV enzyme; type: in vitro ADME; settings: 37° C.; for % degradation of peptidomimetics in 24 h when incubated with DPP-IV enzyme: 2 μM peptidomimetic; for half-life at 2 μM: DPP IV enzyme, pH 7.8, 2 μM peptidomimetic, read-out: half-life (t1/2) when incubated with DPP-IV enzyme
DPP IV, sequence (P27487 whole entry, species assumed): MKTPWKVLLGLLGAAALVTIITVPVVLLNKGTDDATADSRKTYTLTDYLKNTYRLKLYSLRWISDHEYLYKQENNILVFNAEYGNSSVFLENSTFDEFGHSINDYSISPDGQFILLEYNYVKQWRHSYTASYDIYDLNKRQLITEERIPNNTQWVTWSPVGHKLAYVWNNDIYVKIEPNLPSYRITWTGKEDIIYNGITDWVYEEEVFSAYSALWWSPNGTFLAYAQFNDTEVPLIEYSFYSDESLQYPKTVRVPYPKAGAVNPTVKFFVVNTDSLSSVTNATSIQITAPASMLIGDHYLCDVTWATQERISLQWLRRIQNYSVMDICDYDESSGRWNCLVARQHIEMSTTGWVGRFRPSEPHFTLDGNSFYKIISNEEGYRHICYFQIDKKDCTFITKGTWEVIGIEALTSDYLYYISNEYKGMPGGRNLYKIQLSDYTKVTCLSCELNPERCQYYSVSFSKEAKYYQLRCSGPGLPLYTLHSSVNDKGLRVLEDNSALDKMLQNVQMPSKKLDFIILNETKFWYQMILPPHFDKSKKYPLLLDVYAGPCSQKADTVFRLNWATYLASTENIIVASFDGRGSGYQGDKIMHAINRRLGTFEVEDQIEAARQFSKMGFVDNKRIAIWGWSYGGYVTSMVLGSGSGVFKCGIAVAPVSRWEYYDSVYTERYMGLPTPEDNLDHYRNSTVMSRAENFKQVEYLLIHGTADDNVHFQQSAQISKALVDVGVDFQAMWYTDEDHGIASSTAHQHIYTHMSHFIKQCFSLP
Experimental: (§1) Reactions were terminated by the addition of TFA/H2O (15 mL, 10% (v/v)). […] The column was equilibrated with TFA/H20, at a flow rate of 1 mL/min.

[1] = Stability in human plasma; type: in vitro ADME; settings: 2 μM peptidomimetic, pooled human plasma, 37° C.; for half-life at 2 μM: pH 7.8, read-out: half-life (t1/2) when incubated with human plasma
Experimental: as §1

[2] = Stability in simulated gastric fluid; type: in vitro ADME; settings: 2 μM peptidomimetic, simulated gastric fluid pH 1.5, 37° C.; for half-life at 2 μM: read-out: half-life (t1/2) when incubated with simulated gastric fluid
Experimental: as §1

[3] = Stability in simulated intestinal fluid; type: in vitro ADME; settings: 2 μM peptidomimetic, simulated intestinal fluid pH 7.5, 37° C.; for half-life at 2 μM: read-out: half-life (t1/2) when incubated with simulated intestinal fluid
Experimental: as §1

[4] = Stability in liver microsomes; type: in vitro ADME; settings: 2 μM peptidomimetic, human liver microsomes, 37° C.; for half-life at 2 μM: pH 7.8, read-out: half-life (t1/2) when incubated with liver microsomes
Experimental: as §1

T1 sequence (P43220 24-463): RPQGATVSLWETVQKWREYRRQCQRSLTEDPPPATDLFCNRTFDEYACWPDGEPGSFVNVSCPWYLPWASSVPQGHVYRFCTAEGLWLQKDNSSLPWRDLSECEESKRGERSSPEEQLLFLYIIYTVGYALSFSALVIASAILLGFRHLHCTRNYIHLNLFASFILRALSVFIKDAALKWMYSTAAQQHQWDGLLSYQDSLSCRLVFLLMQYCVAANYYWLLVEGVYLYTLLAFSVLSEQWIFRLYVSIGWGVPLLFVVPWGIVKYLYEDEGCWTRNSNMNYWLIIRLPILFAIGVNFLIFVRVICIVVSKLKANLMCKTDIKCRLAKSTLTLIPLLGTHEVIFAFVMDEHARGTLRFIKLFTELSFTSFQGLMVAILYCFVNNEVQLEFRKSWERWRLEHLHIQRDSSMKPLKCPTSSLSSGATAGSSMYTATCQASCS

| SMILES | Human GLP-1 R activity (cAMP release), % activity with respect to control (Human GLP-1 receptor; 1 nM test compound) | Human GLP-1 R activity (cAMP release), % activity with respect to control (Human GLP-1 receptor; 10 nM test compound) | Human GLP-1 R activity (cAMP release), % activity with respect to control (Human GLP-1 receptor; 100 nM test compound) | Human GLP-1 R activity (cAMP release), % activity with respect to control (Human GLP-1 receptor; 1 μM test compound) | Human GLP-1 R activity (cAMP release), % activity with respect to control (Human GLP-1 receptor; 10 μM test compound) | Human Glucagon receptor antagonistic activity shown as inhibition of cAMP production of Glucagon peptide (human glucagon receptor; 1 nM test compound) | Human Glucagon receptor antagonistic activity shown as inhibition of cAMP production of Glucagon peptide (human glucagon receptor; 10 nM test compound) | Human Glucagon receptor antagonistic activity shown as inhibition of cAMP production of Glucagon peptide (human glucagon receptor; 100 nM test compound) | Human Glucagon receptor antagonistic activity shown as inhibition of cAMP production of Glucagon peptide (human glucagon receptor; 1 μM test compound) | Human Glucagon receptor antagonistic activity shown as inhibition of cAMP production of Glucagon peptide (human glucagon receptor; 10 μM test compound) | % degradation of peptidomimetics in 24 h when incubated with DPP-IV enzyme (DPP IV) | half-life at 2 μM (DPP IV) | % degradation of peptidomimetics in 24 h when incubated with human plasma [1] | half-life at 2 μM [1] | % degradation of peptidomimetics in 24 h when incubated with simulated gastric fluid [2] | half-life at 2 μM [2] | % degradation of peptidomimetics in 24 h when incubated with simulated intestinal fluid [3] | half-life at 2 μM [3] | % degradation of peptidomimetics in 24 h when incubated with liver microsomes [4] | half-life at 2 μM [4] | further results |
| --- | --- | --- | --- | --- | --- | --- | --- | --- | --- | --- | --- | --- | --- | --- | --- | --- | --- | --- | --- | --- | --- |
| CCc1cc(OC)ccc1-c1ccc(CC(CNC(CCCc2ccccc2)C(N)=O)NC[C@H](CC(=O)O)NC(=O)[C@H](CO)NC(=O)[C@@H](NC(=O)C(C)(Cc2ccccc2F)NC(=O)[C@@H](NC(=O)CNC(=O)[C@H](CCC(N)=O)NC(=O)C(C)(C)NC(=O)[C@H](Cc2c[nH]cn2)NC(=O)OC)[C@@H](C)O)[C@@H](C)O)cc1 (single isomer, unassigned) [compound 194] | 38 ± 0.11% | 77 ± 0.16% | 85 ± 0.11% | 94 ± 0.08% | 97 ± 0.05% | 18 ± 0.12 pmol/ml/μg prt | 16 ± 0.11 pmol/ml/μg prt | 12 ± 0.13 pmol/ml/μg prt | 8 ± 0.12 pmol/ml/μg prt | 6 ± 0.18 pmol/ml/μg prt | 00% | > 24 h | 00% | > 24 h | 43% | 4 h | 00% | > 24 h | 84% | 2 h | – |
| CCc1cc(OC)ccc1-c1ccc(CC(NC(=S)[C@H](CC(=O)O)NC(=O)[C@H](CO)NC(=O)[C@@H](NC(=O)C(C)(Cc2ccccc2F)NC(=O)[C@@H](NC(=O)CNC(=O)C(CCC#N)NC(=O)C(C)(C)NC(=O)[C@@H](N)Cc2c[nH]cn2)[C@H](C)O)[C@H](C)O)C(=S)NC(CCCc2ccccc2)C(N)=O)cc1 (single isomer, unassigned) [compound 178] | 39 ± 0.12% | 80 ± 0.15% | 86 ± 0.18% | 95 ± 0.03% | 98 ± 0.09% | 0 pmol/ml/μg prt | 0 pmol/ml/μg prt | 0 pmol/ml/μg prt | 0 pmol/ml/μg prt | 0 pmol/ml/μg prt | 00% | > 24 h | 00% | > 24 h | 00% | > 24 h | 00% | > 24 h | 35% | – | half-life (t1/2) when incubated with liver microsomes [4]: (5) h |
| CCc1cc(OC)ccc1-c1ccc(CC(NC(=O)[C@H](CC(=O)O)NC(=O)[C@H](CO)NC(=O)[C@@H](NC(=O)C(C)(Cc2ccccc2F)NC(=O)[C@@H](NC(=O)CNC(=O)C(CCC#N)NC(=O)C(C)(C)NC(=O)[C@H](Cc2c[nH]cn2)NC(C)=O)[C@@H](C)O)[C@@H](C)O)C(=O)NC(CCCc2ccccc2)C(N)=O)cc1 (single isomer, unassigned) [compound 205] | 96 ± 0.09% | 99 ± 0.07% | 99 ± 0.04% | 99 ± 0.01% | 99 ± 0.08% | 4 ± 0.16 pmol/ml/μg prt | 2 ± 0.11 pmol/ml/μg prt | 0 pmol/ml/μg prt | 0 pmol/ml/μg prt | 0 pmol/ml/μg prt | 00% | > 24 h | 00% | > 24 h | 00% | > 24 h | 00% | > 24 h | 33% | – | half-life (t1/2) when incubated with liver microsomes [4]: (5) h |
| CCc1cc(OC)ccc1-c1ccc(CC(NC(=O)[C@H](CC(=O)O)NC(=O)[C@H](CO)NC(=O)[C@@H](NC(=O)[C@H](Cc2ccccc2)NC(=O)[C@@H](NC(=O)CNC(=O)[C@H](CCC(N)=O)NC(=O)C(C)(C)NC(=O)[C@@H](N)Cc2c[nH]cn2)[C@@H](C)O)[C@@H](C)O)C(=O)NC(CCCc2ccc(OC)cc2Cl)C(N)=O)cc1 (single isomer, unassigned) [compound 68] | 39 ± 0.11% | 80 ± 0.09% | 88 ± 0.06% | 96 ± 0.14% | 99 ± 0.19% | – | – | – | – | – | 74% | 9 h | 75% | 8 h | 12% | – | 46% | – | 83% | 1 h | half-life (t1/2) when incubated with simulated gastric fluid [2]: (8) h; half-life (t1/2) when incubated with simulated intestinal fluid [3]: (6) h |
